Test results from patent publication US12023323B2, “Carbohydrate-binding small molecules with antiviral activity” (priority 2018, dated 2024).
Entries after “also recorded” stand apart in the source; their conditions may differ. Structures can show the parent of a compound that is named as a salt. Where two headings read alike, the source gives them in different places.

Legend:
ZIKV GFP RVPs [1] = test system: ZIKV GFP RVPs
[2] = Cellular toxicity, CellTiter-Glo, Vero cells; settings: African green monkey
[3] = Selectivity across the five octyloxy pyranosides from NMR titrations; format: binding; settings: for glycan preference in words / binding profile across the glycans in words: five octyloxy pyranosides, CD2Cl2, 298 K
[4] = 1H NMR titration with octyloxy pyranoside α-Man; format: binding; parameters: key to Ka (M^−1) with α-Man: No detectable binding; settings: for Ka (M^−1) with α-Man: NMR titrations in CD2Cl2 at 298 K; for affinity for α-Man relative to SCR001: fold / ratio SCR:SCR001
[5] = 1H NMR titration with octyloxy pyranoside β-Glc; format: binding; settings: for K1 (1:1 association constant) with β-Glc: CD2Cl2, 298 K; for affinity for β-Glc relative to SCR001: fold / ratio SCR:SCR001
HIV-1 = settings: cell culture; cited from earlier work
ZIKV GFP RVPs [6] = assay: microbe, parasite or virus in culture; settings: Zika virus, Vero
[7] = 1H NMR titration with octyloxy pyranoside β-Gal; format: binding; settings: NMR titrations
[8] = 1H NMR titration with octyloxy pyranoside α-Glc; format: binding; settings: NMR titrations
HeLa cells = assay: Cellular toxicity, CellTiter-Glo, HeLa cells; settings: read-out: TC50, Table 2, 72 h
Vero cells = assay: Cellular toxicity, CellTiter-Glo, Vero cells; settings: for CC50: read-out: TC50, Table 1, 72 h, CellTiter-Glo
[9] = 1H NMR titration with octyloxy pyranoside β-Man; format: binding; parameters: key to Ka (M^−1) with β-Man: No detectable binding; settings: for Ka (M^−1) with β-Man: NMR titrations in CD2Cl2 at 298 K
ZIKV RVPs = assay: microbe, parasite or virus in culture; format: cell-based, Zika virus; settings: for IC50: Zika virus, HeLa
[10] = Table 3, Vero cells, ZIKV RVPs, average of at least two independent measurements
[11] = Table 3 study, Vero cells, ZIKV RVPs, unit μm [sic]
[12] = read-out: IC50 (strong antiviral activity), Vero cells, ZIKV RVPs
[13] = Table 1, Vero cells, compounds 30 min before ZIKV RVPs, GFP+ cells 72 h postinfection

c1ccc2[nH]c(CNCc3cc(CNCc4cc5ccccc5[nH]4)cc(-c4cc(CNCc5cc6ccccc6[nH]5)cc(CNCc5cc6ccccc6[nH]5)c4)c3)cc2c1 [SCR018, 1,1′,1″,1′″-([1,1′-biphenyl]-3,3′,5,5′-tetrayl)tetrakis(N-((1H-indol-2-yl)methyl)methanamine)]
therapeutic index (TC50/IC50) (ZIKV GFP RVPs [1]; Table 3, Vero cells): 2
anti-ZIKV activity in words (ZIKV GFP RVPs [1]; Vero cells, ZIKV RVPs): weaker inhibition
CC50 at 72 h [2]: 29.8 ± 5 µM
glycan preference in words [3]: uniquely bind α-Man; also recorded: specific for α-Man
fold selectivity for α-Man, SCR019 compared to SCR018 ([4]; 2-indole vs 3-indole): 36
Ka (M^−1) with α-Man ([4]; 1:1 binding): 11000 M⁻¹
affinity for α-Man relative to SCR001 [4]: 10
binding to β-Glc in words ([5]; NMR peak shifting upon mixing): no substantial binding

CN[C@@H]1[C@H](O[C@@H]2OC[C@@H](O)[C@H](O)[C@H]2O)[C@@H](O)[C@H](O[C@H]2c3cc(C)c(C(=O)N[C@H](C)C(=O)O)c(O)c3-c3c(cc4c(c3O)C(=O)c3cc(OC)cc(O)c3C4=O)[C@@H]2O)O[C@@H]1C [pradimicin A]
50% effective concentration against HIV-1 (HIV-1): micromolar concentration range

c1cc(CNCc2cc(CNCc3cc[nH]c3)cc(-c3cc(CNCc4cc[nH]c4)cc(CNCc4cc[nH]c4)c3)c2)c[nH]1 [SCR017, 1,1′,1″,1′″-([1,1′-biphenyl]-3,3′,5,5′-tetrayl)tetrakis(N-((1H-pyrrol-3-yl)methyl)methanamine)]
IC50 relative to regioisomer (ZIKV GFP RVPs [1]; SCR023 vs SCR022, SCR017 vs SCR001): four times higher
therapeutic index (TC50/IC50) (ZIKV GFP RVPs [1]; Table 3, Vero cells): 66
anti-ZIKV activity in words (ZIKV GFP RVPs [1]; Vero cells, ZIKV RVPs): potent anti-ZIKV activity
CC50 at 72 h [2]: 316 ± 18 µM
IC50 (ZIKV GFP RVPs [6]; [10]): 4.8 ± 0.4 µM
IC50 (ZIKV GFP RVPs [6]; [11]): < 5 µM
IC50 (ZIKV GFP RVPs [6]; [12]): < 5 µM
glycan preference in words [3]: prefers β-Glc; also recorded: specific for β-Glc
K2 (1:2 SCR·glycan association constant) with β-Glc ([5]; 1:2 SCR·glycan complexes): 6800 M⁻¹
cumulative association constant β with β-Glc ([5]; 1:2 SCR·glycan complexes): 8.4×10^1 M^−2
cumulative association constant β with β-Glc ([5]; 1:2 SCR·glycan, unit M^2): 8.4×10^1 M^2
K1 (1:1 association constant) with β-Glc [5]: 1.2 M⁻¹
affinity for β-Glc relative to SCR001 [5]: 7

c1cncc(CNCc2cc(CNCc3cccnc3)cc(-c3cc(CNCc4cccnc4)cc(CNCc4cccnc4)c3)c2)c1 [SCR021, 1,1′,1″,1′″-([1,1′-biphenyl]-3,3′,5,5′-tetrayl)tetrakis(N-(pyridin-3-ylmethyl)methanamine)]
IC50 (ZIKV GFP RVPs [6]; [10]): > 100 µM
IC50 (ZIKV GFP RVPs [6]; [11]): > 100 µM
glycan preference in words [3]: prefer β-Glc
affinity for β-Glc over α-Man ([3]; times): 67
binding to β-Gal in words [7]: no substantial binding
Ka (M^−1) with α-Man ([4]; 1:1 binding): 490 M⁻¹
K2 (1:2 SCR·glycan association constant) with β-Glc ([5]; 1:2 SCR·glycan complexes): 12000 M⁻¹
cumulative association constant β with β-Glc ([5]; 1:2 SCR·glycan complexes): 3.3×10^4 M^−2
K1 (1:1 association constant) with β-Glc [5]: 2.7 M⁻¹
affinity for β-Glc relative to SCR001 [5]: 25
binding to α-Glc in words [8]: no substantial binding

c1ccc(CNCc2cc(CNCc3ccccn3)cc(-c3cc(CNCc4ccccn4)cc(CNCc4ccccn4)c3)c2)nc1 [SCR020, 1,1′,1″,1′″-([1,1′-biphenyl]-3,3′,5,5′-tetrayl)tetrakis(N-(pyridin-2-ylmethyl)methanamine)]
therapeutic index (TC50/IC50) (ZIKV GFP RVPs [1]; Table 3, Vero cells): 9
IC50 (ZIKV GFP RVPs [1]; [10]): 19.9 ± 14.4 µM
anti-ZIKV activity in words (ZIKV GFP RVPs [1]; Vero cells, ZIKV RVPs): weaker inhibition
CC50 at 72 h [2]: 178 ± 99 µM
IC50 (ZIKV GFP RVPs [6]; [10]): < 20 µM
glycan preference in words [3]: uniquely bind α-Man; also recorded: specific for α-Man
K2 (1:2 SCR·glycan association constant) with α-Man ([4]; 1:2 SCR·glycan binding model): 11 M⁻¹
cumulative association constant β with α-Man ([4]; 1:2 SCR·glycan binding model): 2.8×10^5 M^−2
cumulative association constant β with α-Man ([4]; 1:2 SCR·glycan, unit M^2): 2.8×10^5 M^2
K1 (1:1 association constant) with α-Man ([4]; CD2Cl2, 298 K): 260 M⁻¹
affinity for α-Man relative to SCR001 [4]: 200
change in affinity for α-Man, SCR020 and SCR021 ([4]; times): 570

O=C(NCc1cc(CNC(=O)c2cccs2)cc(-c2cc(CNC(=O)c3cccs3)cc(CNC(=O)c3cccs3)c2)c1)c1cccs1 [SCR008, N,N,N′,N″-([1,1′-biphenyl]-3,3′,5,5′-tetrayltetrakis(methylene))tetrakis(thiophene-2-carboxamide)]
IC50 (ZIKV GFP RVPs [1]): > 100 µM
anti-ZIKV activity in words (ZIKV GFP RVPs [1]): not effective

c1c[nH]c(CNCc2cc(CNCc3ccc[nH]3)cc(-c3cc(CNCc4ccc[nH]4)cc(Cn4cc(COCCOCCOCCOCc5cn(Cc6cc(CNCc7ccc[nH]7)cc(-c7cc(CNCc8ccc[nH]8)cc(CNCc8ccc[nH]8)c7)c6)nn5)nn4)c3)c2)c1 [SCR012]
CC50 (HeLa cells): 2.48 µM
CC50 (Vero cells): 36.2 µM
binding profile across the glycans in words [3]: promiscuous; also recorded: bind all five glycans
Ka (M^−1) with β-Man ([9]; 1:1 binding): 1700 M⁻¹
Ka (M^−1) with α-Man ([4]; 1:1 binding): 2600 M⁻¹

NCc1cc(CN)cc(-c2cc(CN)cc(CN)c2)c1 [Compound 2, [1,1′-biphenyl]-3,3′,5,5′-tetrayltetramethanamine tetrahydrochloride]
IC50 (ZIKV GFP RVPs [6]; [13]): > 100 µM

c1coc(CNCc2cc(CNCc3ccco3)cc(-c3cc(CNCc4ccco4)cc(CNCc4ccco4)c3)c2)c1 [SCR002, 1,1′,1″,1′″-([1,1′-biphenyl]-3,3′,5,5′-tetrayl)tetrakis(N-(furan-2-ylmethyl)methanamine)]
anti-ZIKV activity in words (ZIKV RVPs; HeLa cells, ZIKV RVPs): more potent than SCR001
IC50 (ZIKV RVPs): 0.35 ± 0.09 µM
CC50 (HeLa cells): 2.51 µM
anti-ZIKV activity in words (ZIKV GFP RVPs [1]; Vero cells, ZIKV RVPs): less potent
CC50 (Vero cells): 5.43 µM
IC50 (ZIKV GFP RVPs [6]; [13]): 1.13 ± 0.23 µM
binding profile across the glycans in words [3]: measurable binding with only β-Glc, β-Man and α-Man; also recorded: binds only β-Glc, β-Man, and α-Man
glycan preference in words [3]: preference for α-Man; also recorded: selective for α-Man
Ka (M^−1) with β-Man ([9]; 1:1 binding): 54 M⁻¹
Ka (M^−1) with α-Man ([4]; 1:1 binding): 1400 M⁻¹

c1csc(CNCc2cc(CNCc3cccs3)cc(-c3cc(CNCc4cccs4)cc(CNCc4cccs4)c3)c2)c1 [SCR003, 1,1′,1″,1′″-([1,1′-biphenyl]-3,3′,5,5′-tetrayl)tetrakis(N-(thiophen-2-ylmethyl)methanamine)]
IC50 (ZIKV RVPs): 0.56 ± 0.08 µM
CC50 (HeLa cells): 2.47 µM
anti-ZIKV activity in words (ZIKV GFP RVPs [1]; Vero cells, ZIKV RVPs): less potent
CC50 (Vero cells): 4.12 µM
IC50 (ZIKV GFP RVPs [6]; [13]): 1.31 µM
binding profile across the glycans in words [3]: only had measurable binding with β-Glc, and α-Man; also recorded: binds only β-Glc and α-Man
glycan preference in words [3]: preference for α-Man; also recorded: selective for α-Man
Ka (M^−1) with β-Man [9]: c
Ka (M^−1) with β-Man ([9]; 1:1 binding): < 30 M⁻¹
Ka (M^−1) with α-Man [4]: c

c1ccc2c(CNCc3cc(CNCc4c[nH]c5ccccc45)cc(-c4cc(CNCc5c[nH]c6ccccc56)cc(CNCc5c[nH]c6ccccc56)c4)c3)c[nH]c2c1 [SCR019, 1,1′,1″,1′″-([1,1′-biphenyl]-3,3′,5,5′-tetrayl)tetrakis(N-((1H-indol-3-yl)methyl)methanamine)]
therapeutic index (TC50/IC50) (ZIKV GFP RVPs [1]; Table 3, Vero cells): 153
CC50 at 72 h [2]: 39.8 ± 1.7 µM
cellular toxicity in words (Vero cells): minimal cellular toxicity; also recorded: low off-site toxicity
IC50 (ZIKV GFP RVPs [6]; [10]): 0.26 µM
IC50 (ZIKV GFP RVPs [6]; [12]): < 5 µM
glycan preference in words [3]: prefers β-Man; also recorded: selective for Mannosides with a preference for the β-anomer
affinity for β-Man over α-Man ([3]; fold): 250
cumulative association constant β=K1×K2 with β-Man ([9]; 1:2 SCR·glycan binding model): 7.4×10^4 M^−2
cumulative association constant β with β-Man ([9]; 1:2 SCR·glycan, unit M^2): 7.4×10^4 M^2
K1 (1:1 association constant) with β-Man ([9]; CD2Cl2, 298 K): 2.3 M⁻¹
K2 (1:2 SCR·glycan association constant) with β-Man ([9]; CD2Cl2, 298 K, 1:2 SCR·glycan binding model): 32000 M⁻¹
affinity for β-Man relative to SCR001 ([9]; SCR019:SCR001): 2
Ka (M^−1) with α-Man ([4]; 1:1 binding): 290 M⁻¹
binding to α-Glc in words [8]: no substantial binding

COc1cc(O)c2c(c1)C(=O)c1c(cc3c(c1O)-c1c(cc(C)c(C(=O)N[C@H](C)C(=O)O)c1O)[C@H](O[C@@H]1O[C@H](C)[C@H](O)[C@H](O[C@@H]4OC[C@@H](O)[C@H](O)[C@H]4O)[C@H]1O)[C@H]3O)C2=O [benanomicin A]
50% effective concentration against HIV-1 (HIV-1): micromolar concentration range
